Laboratory results taken from patent US9080214B2, “Genetic markers for efficacy of iloperidone in the treatment of psychotic symptoms” (Vanda Pharmaceuticals, Inc., priority 2007, dated 2015).

Test system: individuals diagnosed with schizophrenia
Experiment: Change in PANSS-N subscale by SNP genotype, patients on iloperidone 24 mg/day b.i.d. for 28 days (MMRM)
Type: in vivo, human
Text: Earlier studies investigated an association between a polymorphism in the CNTF gene and iloperidone efficacy as well as associations between CYP2D6 and KCNQ1 genotypes and changes in QT interval following the administration of iloperidone. The present study involved the genotyping of DNA samples collected from 426 individuals diagnosed with schizophrenia in an attempt to identify additional SNPs associated with iloperidone efficacy. Each sample was genotyped at more than 500,000 SNP loci using the GeneChip® Human Mapping 500K Array Set (Affymetrix, Santa Clara, Calif.) and using assays developed in-house. Approximately half of the participants in the study were administered 24 mg/day of iloperidone, b.i.d., for 28 days. About 25% of the patients were administered ziprasidone. The remaining participants were administered a placebo. Three analyses of the PANSS-T were conducted. 1) A two-step approach where samples were randomly split into 2 groups of iloperidone-treated patients used to discover SNPs associated with changed in PANSS-T (Discovery phase) and a second group to confirm the 100 most significant SNPs (Confirmatory phase). 2) A one-step approach using the Last Observation Carried Forward (LOCF) PANSS-T data of all iloperidone-treated patients. For each SNP, the most parsimonious genetic model (e.g., homozygous for one allele v. all other genotypes [i.e., AA v. AB and BB], heterozygous v. homozygous [i.e., AB v. AA and BB]) was established with respect to iloperidone efficacy using a one-way analysis of variance (ANOVA). 3) A Mixed-effects Model Repeated Measures (MMRM) analysis was subsequently conducted using the best genetic model of each SNP in the MMRM model. MMRM analyses were also conducted with the PANSS subscales PANSS-P, PANSS-N, and PANSS-GP. The SNPs with a statistically significant association in all 3 analyses of PANSS-T, as well as the best of each analysis were considered significant findings and are listed below in Table 1. Results for each of these SNPs with the PANSS-T scales and with the three subscales PANSS-P, PANSS-N, and PANSS-GP are shown in Tables 2, 3, 4, and 5, respectively. […] In the present case of iloperidone efficacy, it is likely that different markers are more specifically associated with one or a few specific clinical symptoms, which is reflected in the improvement measured in separate subscales.

## COc1cc(C(C)=O)ccc1OCCCN1CCC(c2noc3cc(F)ccc23)CC1 [iloperidone, 1-[4-[3-[4-(6-fluoro-1,2-benzisoxazol-3-yl)-1-piperidinyl]propoxy]-3-methoxyphenyl]ethanone]
SNP_A-1819750 (CREG1) genotype A_A
  mean of change in PANSS-N: −5.35
SNP_A-1819750 (CREG1) genotype A_B* (lowest response)
  mean of change in PANSS-N: −2.01
SNP_A-1819750 (CREG1) genotype B_B
  mean of change in PANSS-N: −4.01
SNP_A-1819750 (CREG1) genotype nonAB** (highest response)
  mean of change in PANSS-N: −4.45
SNP_A-1860353 (RAP1B) genotype A_A** (highest response)
  mean of change in PANSS-N: −11.00
SNP_A-1860353 (RAP1B) genotype A_B
  mean of change in PANSS-N: −2.29
SNP_A-1860353 (RAP1B) genotype B_B
  mean of change in PANSS-N: −2.73
SNP_A-1860353 (RAP1B) genotype nonAA* (lowest response)
  mean of change in PANSS-N: −2.65
SNP_A-1934663 genotype A_A
  mean of change in PANSS-N: −3.38
SNP_A-1934663 genotype A_B
  mean of change in PANSS-N: −3.94
SNP_A-1934663 genotype B_B* (lowest response)
  mean of change in PANSS-N: −2.06
SNP_A-1934663 genotype nonBB** (highest response)
  mean of change in PANSS-N: −3.82
SNP_A-1973093 (KIAA0040) genotype A_A
  mean of change in PANSS-N: −3.32
SNP_A-1973093 (KIAA0040) genotype A_B* (lowest response)
  mean of change in PANSS-N: −1.85
SNP_A-1973093 (KIAA0040) genotype B_B
  mean of change in PANSS-N: −3.46
SNP_A-1973093 (KIAA0040) genotype nonAB** (highest response)
  mean of change in PANSS-N: −3.43
SNP_A-1975928 (SLC2A9) genotype A_A
  mean of change in PANSS-N: −2.87
SNP_A-1975928 (SLC2A9) genotype A_B
  mean of change in PANSS-N: −2.95
SNP_A-1975928 (SLC2A9) genotype B_B* (lowest response)
  mean of change in PANSS-N: 0.62
SNP_A-1975928 (SLC2A9) genotype nonBB** (highest response)
  mean of change in PANSS-N: −2.89
SNP_A-1987915 (GPR126) genotype A_A
  mean of change in PANSS-N: −1.91
SNP_A-1987915 (GPR126) genotype A_B
  mean of change in PANSS-N: −2.03
SNP_A-1987915 (GPR126) genotype B_B** (highest response)
  mean of change in PANSS-N: −4.28
SNP_A-1987915 (GPR126) genotype nonBB* (lowest response)
  mean of change in PANSS-N: −2.00
SNP_A-2007721 (LOC58486) genotype A_A
  mean of change in PANSS-N: 0.51
SNP_A-2007721 (LOC58486) genotype A_B** (highest response)
  mean of change in PANSS-N: −4.73
SNP_A-2007721 (LOC58486) genotype B_B
  mean of change in PANSS-N: −2.33
SNP_A-2007721 (LOC58486) genotype nonAB* (lowest response)
  mean of change in PANSS-N: −2.31
SNP_A-2044214 (HNT) genotype A_A
  mean of change in PANSS-N: −3.32
SNP_A-2044214 (HNT) genotype A_B* (lowest response)
  mean of change in PANSS-N: −2.16
SNP_A-2044214 (HNT) genotype B_B
  mean of change in PANSS-N: −3.05
SNP_A-2044214 (HNT) genotype nonAB** (highest response)
  mean of change in PANSS-N: −3.22
SNP_A-2048427 (NPAS3) genotype A_A
  mean of change in PANSS-N: −4.12
SNP_A-2048427 (NPAS3) genotype A_B
  mean of change in PANSS-N: −4.30
SNP_A-2048427 (NPAS3) genotype B_B* (lowest response)
  mean of change in PANSS-N: −2.27
SNP_A-2048427 (NPAS3) genotype nonBB** (highest response)
  mean of change in PANSS-N: −4.28
SNP_A-2070454 (NKX2-5) genotype A_A
  mean of change in PANSS-N: −1.86
SNP_A-2070454 (NKX2-5) genotype A_B
  mean of change in PANSS-N: −2.40
SNP_A-2070454 (NKX2-5) genotype B_B** (highest response)
  mean of change in PANSS-N: −4.58
SNP_A-2070454 (NKX2-5) genotype nonBB* (lowest response)
  mean of change in PANSS-N: −2.23
SNP_A-2076797 (NUDT9P1) genotype A_A
  mean of change in PANSS-N: −1.75
SNP_A-2076797 (NUDT9P1) genotype A_B** (highest response)
  mean of change in PANSS-N: −4.06
SNP_A-2076797 (NUDT9P1) genotype B_B
  mean of change in PANSS-N: −1.62
SNP_A-2076797 (NUDT9P1) genotype nonAB* (lowest response)
  mean of change in PANSS-N: −1.69
SNP_A-2103099 (HTR1A) genotype A_A
  mean of change in PANSS-N: −4.08
SNP_A-2103099 (HTR1A) genotype A_B* (lowest response)
  mean of change in PANSS-N: −2.09
SNP_A-2103099 (HTR1A) genotype B_B
  mean of change in PANSS-N: −3.40
SNP_A-2103099 (HTR1A) genotype nonAB** (highest response)
  mean of change in PANSS-N: −3.65
SNP_A-2120958 genotype A_A
  mean of change in PANSS-N: −3.15
SNP_A-2120958 genotype A_B
  mean of change in PANSS-N: −2.84
SNP_A-2120958 genotype B_B* (lowest response)
  mean of change in PANSS-N: −1.11
SNP_A-2120958 genotype nonBB** (highest response)
  mean of change in PANSS-N: −3.03
SNP_A-2170121 (C6) genotype A_A
  mean of change in PANSS-N: −2.14
SNP_A-2170121 (C6) genotype A_B** (highest response)
  mean of change in PANSS-N: −4.78
SNP_A-2170121 (C6) genotype B_B
  mean of change in PANSS-N: −2.52
SNP_A-2170121 (C6) genotype nonAB* (lowest response)
  mean of change in PANSS-N: −2.17
SNP_A-2274533 (LZTS1) genotype A_A** (highest response)
  mean of change in PANSS-N: −3.67
SNP_A-2274533 (LZTS1) genotype A_B
  mean of change in PANSS-N: −1.52
SNP_A-2274533 (LZTS1) genotype B_B
  mean of change in PANSS-N: −1.16
SNP_A-2274533 (LZTS1) genotype nonAA* (lowest response)
  mean of change in PANSS-N: −1.44
SNP_A-2283283 (XKR4) genotype A_A* (lowest response)
  mean of change in PANSS-N: −0.95
SNP_A-2283283 (XKR4) genotype A_B
  mean of change in PANSS-N: −3.20
SNP_A-2283283 (XKR4) genotype B_B
  mean of change in PANSS-N: −3.62
SNP_A-2283283 (XKR4) genotype nonAA** (highest response)
  mean of change in PANSS-N: −3.37
SNP_A-2284243 (GRIA4) genotype A_A
  mean of change in PANSS-N: −3.70
SNP_A-2284243 (GRIA4) genotype A_B
  mean of change in PANSS-N: −3.46
SNP_A-2284243 (GRIA4) genotype B_B* (lowest response)
  mean of change in PANSS-N: −0.52
SNP_A-2284243 (GRIA4) genotype nonBB** (highest response)
  mean of change in PANSS-N: −3.55
SNP_A-4204396 (CDH13) genotype A_A
  mean of change in PANSS-N: −3.22
SNP_A-4204396 (CDH13) genotype A_B
  mean of change in PANSS-N: −3.12
SNP_A-4204396 (CDH13) genotype B_B* (lowest response)
  mean of change in PANSS-N: 1.62
SNP_A-4204396 (CDH13) genotype nonBB** (highest response)
  mean of change in PANSS-N: −3.18
SNP_A-4212785 (PPP1R3B) genotype A_A* (lowest response)
  mean of change in PANSS-N: 4.72
SNP_A-4212785 (PPP1R3B) genotype A_B
  mean of change in PANSS-N: −3.06
SNP_A-4212785 (PPP1R3B) genotype B_B
  mean of change in PANSS-N: −3.11
SNP_A-4212785 (PPP1R3B) genotype nonAA** (highest response)
  mean of change in PANSS-N: −3.09
SNP_A-4230979 (ASB3) genotype A_A
  mean of change in PANSS-N: −1.72
SNP_A-4230979 (ASB3) genotype A_B
  mean of change in PANSS-N: −2.02
SNP_A-4230979 (ASB3) genotype B_B** (highest response)
  mean of change in PANSS-N: −4.23
SNP_A-4230979 (ASB3) genotype nonBB* (lowest response)
  mean of change in PANSS-N: −1.96
SNP_A-4256833 (MLCK) genotype A_A
  mean of change in PANSS-N: −3.58
SNP_A-4256833 (MLCK) genotype A_B* (lowest response)
  mean of change in PANSS-N: −0.86
SNP_A-4256833 (MLCK) genotype B_B
  mean of change in PANSS-N: −3.69
SNP_A-4256833 (MLCK) genotype nonAB** (highest response)
  mean of change in PANSS-N: −3.68
SNP_A-4258279 (RRM1) genotype A_A
  mean of change in PANSS-N: −2.57
SNP_A-4258279 (RRM1) genotype A_B* (lowest response)
  mean of change in PANSS-N: −1.09
SNP_A-4258279 (RRM1) genotype B_B
  mean of change in PANSS-N: −3.34
SNP_A-4258279 (RRM1) genotype nonAB** (highest response)
  mean of change in PANSS-N: −3.33
